Reference: patent publication US8465912B2, “Methods for the identification of agents that inhibit mesenchymal-like tumor cells or their formation” (OSI Pharmaceuticals, LLC, priority 2009, dated 2013)

Legend:
Type in all cases: cell-based, human
H1650 cells [1] = test: Pharmacological inhibition of ligand-induced EMT (Western blot, morphology); settings: MEK inhibitor 1 1 μM, LY294002 10 μM, JAK inhibitor 1 0.25 μM
Method: Supernatents were micro-centrifuged at max speed, 4° C. for 10 minutes. […] SDS PAGE was run using a Bis-Tris gel system (Invitrogen NuPAGE) with MOPS buffer (Invitrogen NP0001), transferred onto nitrocellulose using the iBLOT system (Invitrogen) and blocked in PBS-T (0.1% Tween 20), 5% non-fat milk or BSA in guidance with primary Ab supplier requirements. […] Secondary HRP labeled antibodies used were: anti Rabbit IgG HRP (Amersham NA934) 1:5000 dilution; anti Mouse IgG HRP (Sigma A2304) 1:2000 dilution. Membranes were visualized using the Supersignal ELISA Femto Maximum Sensitivity Substrate (Pierce).
Cells were treated with inhibitor 30 minutes prior to ligand stimulation. Medium, inhibitor and ligand were refreshed on experimental day 3 to 4. Cells were photographed and lysed in RIPA buffer on day 7 for Western blotting.
To determine what signaling pathways are important for EMT in this model, cells were stimulated for 7 days with OSM, HGF+OSM or OSM+TGFβ in the presence of inhibitors to MEK, PI3K and JAK, since these pathways are established downstream effectors of these ligands. After 7 days, we photographed the cells to show morphology and harvested the cells to analyze markers by immunoblot (FIG. 6).

H1650 cells [2] = test: qPCR of EMT gene changes in response to ligand treatment; settings: 7 days ligand, qPCR normalized to GAPDH and untreated control
Method: (§1) The human cell line, H1650 was cultured in […] containing 10% FBS, 2 mM L-Glutamine, and 1 mM sodium pyruvate, at 37° C., 5% CO2. Growth factor and cytokine induced EMT was monitored over 7 days. Growth factor and cytokines were obtained from commercial sources and used as follows: HGF (Hepatocyte growth factor) at 100 ng/ml, EGF (Epidermal Growth Factor) at 100 ng/ml, OSM (Oncostatin M) at 100 ng/ml, TGFβ1 (Transforming growth factor, beta 1) at 10 ng/ml, and TNFα (Tumor necrosis factor alpha) at 25 ng/ml.
Cells were plated and treated with ligand for 7 days. At the time of harvest, cells were trypsinized and snap frozen for later use. Total RNA was isolated using RNAqueous-4 PCR Kit (Ambion, AM1914). Samples were DNase treated using the Turbo DNA-Free kit (Ambion, AM1907) and reverse transcribed using Superscript III (Invitrogen, 18080-044) for qPCR analysis. Taqman primers and Locked-Nucleic Acid probes were designed using ProbeFinder software (Universal Probe library, Roche). For mRNA analysis, real time PCR was performed using the ABI 7900HT series PCR machine. Thermocycle conditions were as follows: 50° C. for 2 minutes, 95° C. for 10 minutes, 95° C. for 15 seconds, 50° C. for 10 seconds, 60° C. for 1 minute. Data was collected over 45 cycles and then normalized to GAPDH and further normalized to the untreated control sample.

H1650 cells [3] = test: Induction of EMT by growth factors and cytokines in 2D culture (immunoblot, morphology, confocal); settings: H1650 2D; for E-cadherin localization by confocal microscopy: 7 days ligand, untreated cells show membrane E-cadherin; for Induction of EMT (E-cadherin, vimentin, morphology): 7 days, HGF, EGF, OSM 100 ng/ml, TGFβ1 10 ng/ml, TNFα 25 ng/ml
Method: as §1
Cells were harvested by washing once with PBS, and lysing on ice for 10 minutes with scraping (using a Cell Lifter, Corning Inc. #3008) in ice cold RIPA buffer (Sigma R0278) containing Protease inhibitor (Sigma P8340), Phosphatase inhibitors (Sigma P2850, P5726) and 200 μM Sodium Vanadate. Supernatents were micro-centrifuged at max speed, 4° C. for 10 minutes. Protein content was quantitated using the BCA method (Pierce #23225) and samples were normalized to total protein in Laemli buffer and heated at 100° C. for 10 minutes. SDS PAGE was run using a Bis-Tris gel system (Invitrogen NuPAGE) with MOPS buffer (Invitrogen NP0001), transferred onto nitrocellulose using the iBLOT system (Invitrogen) and blocked in PBS-T (0.1% Tween 20), 5% non-fat milk or BSA in guidance with primary Ab supplier requirements. All primary antibodies were incubated overnight at 4° C. in PBS-T (0.1% Tween 20) in either 5% non-fat milk or BSA, diluted to the following working dilutions: anti E Cadherin (Santa Cruz #sc-21791) 1:500 dilution; anti Vimentin (BD Biosciences #550513) 1:2000 dilution;); 1:1000 dilution; anti β-Actin (Sigma, A5441) 1:10,000 dilution. Secondary HRP labeled antibodies used were: anti Rabbit IgG HRP (Amersham NA934) 1:5000 dilution; anti Mouse IgG HRP (Sigma A2304) 1:2000 dilution. Membranes were visualized using the Supersignal ELISA Femto Maximum Sensitivity Substrate (Pierce).
Cells were fixed in 4% paraformaldehyde (Electron Microscopy Sciences #15710)/PBS (Gibco#14190) for 10 minutes at room temperature, washed with PBS and permeabilized with 0.1% Triton X100 (Sigma P1379) in PBS for 10 minutes at room temp. Cells were blocked with 3% BSA/PBS for at least 15 minutes then incubated with primary antibody diluted in blocking buffer for a minimum of two hours at room temperature. Anti E-Cadherin was used at a 1:75 dilution and anti Vimentin (Millipore #AB5733) was used at a 1:2000 dilution. Cells were washed, incubated with fluorescently-labeled secondary antibodies for one hour, followed by a 5 minute TO-PRO3 nuclear counterstain (Invitrogen #T3605) at room temperature, washed and mounted on slides with Pro-Long Gold anti-fade reagent (Invitrogen #P36934). Secondary fluorescent antibodies used were: anti mouse 488 nm (Invitrogen #A11029) 1:600 dilution; anti chicken TRITC (Chemicon #AP194R) 1:50 dilution. Stained cells were captured on a Leica DMRXE microscope/SP2 scanner using Leica Confocal Software (LCS).
The ability of cell lines to undergo epithelial to mesenchymal transition (EMT) was investigated using different extracellular ligand drivers. A panel of NSCLC, pancreatic, and breast cancer cell lines were screened by treatment of cells for 7 days in presence of respective ligands, either singly or in combination. Initial screening determined the ability of the ligand to cause morphology change, to down-regulate the epithelial marker, E-cadherin or to up-regulate a mesenchymal marker such as vimentin. Potential EMT cell models should up-regulate a mesenchymal marker and display morphology change. More robust models would show a down-regulation of E-cadherin expression.

H1650 cells [4] = test: Doubling time of ligand-treated H1650 cells; settings: 7 days ligand, doubling time over following two weeks, versus untreated
Method: as §1
Cells were plated and treated with ligand for 7 days. On day 7, cells were counted and re-plated on 6 cm cell culture dishes. On days 3, 5, 7, 10 and 12, cells were trypsinized and counted to determine the total number of cells in the dish, in duplicate. Doubling time was calculated using the multiple time point method on the website www.doubling-time.com.

Molecule | CDH1 gene change (H1650 cells [2]) | CDH2 gene change (H1650 cells [2]) | CLDN3 gene change (H1650 cells [2]) | ERBB3 gene change (H1650 cells [2]) | ITGB3 gene change (H1650 cells [2]) | MTA3 gene change (H1650 cells [2]) | OCLN gene change (H1650 cells [2]) | PLAUR gene change (H1650 cells [2]) | SNAI1 gene change (H1650 cells [2]) | SNAI2 gene change (H1650 cells [2]) [fold change] | SPARC gene change (H1650 cells [2]) | TJP3 gene change (H1650 cells [2]) | TWIST1 gene change (H1650 cells [2]) | VCAN gene change (H1650 cells [2]) [fold change] | VIM gene change (H1650 cells [2]) [fold change] | ZEB1 gene change (H1650 cells [2]) | ZEB2 gene change (H1650 cells [2]) | E-cadherin localization by confocal microscopy (H1650 cells [3]) | Induction of EMT (E-cadherin, vimentin, morphology) (H1650 cells [3]) | Change in doubling time (H1650 cells [4]) | also measured
CC(C)(C)c1nc2c3cc[nH]c(=O)c3c3cc(F)ccc3c2[nH]1 [JAK inhibitor 1] | – | – | – | – | – | – | – | – | – | – | – | – | – | – | – | – | – | – | – | – | Effect on HGF+OSM-induced EMT (H1650 cells [1]; 7 days HGF+OSM): partial; Effect on OSM+TGFβ-induced EMT (H1650 cells [1]; 7 days OSM+TGFβ): near complete block; Effect on OSM-induced EMT (H1650 cells [1]; 7 days OSM): near complete block; Effect on EMT in all three ligand models (OSM, HGF+OSM, OSM+TGFβ) (H1650 cells [1]; 7 days, immunoblot and morphology): blocked EMT to varying degrees
HGF: Hepatocyte growth factor, commercial protein ligand used at 100 ng/ml to induce EMT in H1650 cells | NC (Fold changes less than 3 are reported as NC) | NC (Fold changes less than 3 are reported as NC) | NC (Fold changes less than 3 are reported as NC) | NC (Fold changes less than 3 are reported as NC) | NC (Fold changes less than 3 are reported as NC) | NC (Fold changes less than 3 are reported as NC) | NC (Fold changes less than 3 are reported as NC) | NC (Fold changes less than 3 are reported as NC) | NC (Fold changes less than 3 are reported as NC) | 6.43 | NC (Fold changes less than 3 are reported as NC) | NC (Fold changes less than 3 are reported as NC) | NC (Fold changes less than 3 are reported as NC) | 6.71 | 4.92 | NC (Fold changes less than 3 are reported as NC) | NC (Fold changes less than 3 are reported as NC) | absence of E-cadherin or mislocalization of E-cadherin to the cytoplasm | partial EMT | modest decrease | ACTN1 gene change (H1650 cells [2]): NC (Fold changes less than 3 are reported as NC)
TNFα | – | – | – | – | – | – | – | – | – | – | – | – | – | – | – | – | – | – | do not stimulate EMT by themselves | – | –
EGF: Epidermal Growth Factor, commercial protein ligand used at 100 ng/ml | – | – | – | – | – | – | – | – | – | – | – | – | – | – | – | – | – | absence of E-cadherin or mislocalization of E-cadherin to the cytoplasm | partial EMT | – | –
TGFβ: Transforming growth factor, beta 1, used at 10 ng/ml | NC (Fold changes less than 3 are reported as NC) | NC (Fold changes less than 3 are reported as NC) | NC (Fold changes less than 3 are reported as NC) | NC (Fold changes less than 3 are reported as NC) | NC (Fold changes less than 3 are reported as NC) | NC (Fold changes less than 3 are reported as NC) | NC (Fold changes less than 3 are reported as NC) | NC (Fold changes less than 3 are reported as NC) | NC (Fold changes less than 3 are reported as NC) | 4.9 | NC (Fold changes less than 3 are reported as NC) | NC (Fold changes less than 3 are reported as NC) | NC (Fold changes less than 3 are reported as NC) | 5.04 | 3.99 | NC (Fold changes less than 3 are reported as NC) | NC (Fold changes less than 3 are reported as NC) | – | do not stimulate EMT by themselves | no effect | –
